SMILES strings stand for the structures.

The target of experiment [1] is T1, 5-HT2A receptor (Homo sapiens, UniProt P28223).
T1 construct: purchased PerkinElmer
Description: Radioligand binding assay, serotoninergic 5-HT2A receptors. To be noted: binding assay result in %, Table 5a. The gist of the method:
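Competition curves from scintillation-counted specific binding (total minus binding with excess unlabelled ligand) were Hill-fitted to give IC50, converted to Ki via Cheng-Prusoff using Scatchard-derived Kd.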

Experiment [2] concerns the target dopaminergic receptors D2 (Homo sapiens, UniProt P14416). Description: Radioligand binding assay, dopaminergic D2 receptors. To be noted: binding assay, test compound 1×10^−6 M. The method, boiled down: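 Displacement of radioligand from human dopamine D2, D3 or D4.4 receptors, counted by scintillation; specific binding is total minus binding under excess unlabelled ligand. IC50 values come from Hill curve fits of percent inhibition, then converted to Ki by Cheng-Prusoff using Scatchard-derived KD.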

In experiment [3] the target is T2, 5-HT7 receptor (Homo sapiens, UniProt P34969).
T2 construct: purchased PerkinElmer
T2 sequence (P34969 whole entry): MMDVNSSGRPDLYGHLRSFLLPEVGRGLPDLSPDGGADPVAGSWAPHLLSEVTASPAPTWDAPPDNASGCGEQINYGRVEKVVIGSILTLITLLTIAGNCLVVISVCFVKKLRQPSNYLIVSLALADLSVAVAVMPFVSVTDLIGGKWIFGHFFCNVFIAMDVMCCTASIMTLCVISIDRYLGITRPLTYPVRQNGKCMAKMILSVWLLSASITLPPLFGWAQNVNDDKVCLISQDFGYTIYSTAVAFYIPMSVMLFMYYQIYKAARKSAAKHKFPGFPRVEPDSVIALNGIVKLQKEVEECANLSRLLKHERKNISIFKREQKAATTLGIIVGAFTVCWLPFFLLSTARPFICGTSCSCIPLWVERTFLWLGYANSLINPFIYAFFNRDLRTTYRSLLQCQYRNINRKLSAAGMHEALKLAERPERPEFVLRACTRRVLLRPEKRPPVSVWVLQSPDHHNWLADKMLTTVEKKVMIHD
Description: Radioligand binding assay, serotoninergic 5-HT7 receptors.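 Also: test compound at 1 µM.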 The conditions noted are these: binding assay result in %, Table 5a. The method, boiled down:
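Ki values used the Cheng–Prusoff equation, with KD from Scatchard analysis, applied to IC50 from Hill fits of human 5-HT7 radioligand competition curves. Bound radioligand was counted by scintillation, and excess unlabelled ligand set the non-specific binding.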

For experiment [4], the target named is T3, 5-HT6 receptor (Homo sapiens, UniProt P50406).
T3 construct: purchased PerkinElmer
T3 sequence (P50406 whole entry): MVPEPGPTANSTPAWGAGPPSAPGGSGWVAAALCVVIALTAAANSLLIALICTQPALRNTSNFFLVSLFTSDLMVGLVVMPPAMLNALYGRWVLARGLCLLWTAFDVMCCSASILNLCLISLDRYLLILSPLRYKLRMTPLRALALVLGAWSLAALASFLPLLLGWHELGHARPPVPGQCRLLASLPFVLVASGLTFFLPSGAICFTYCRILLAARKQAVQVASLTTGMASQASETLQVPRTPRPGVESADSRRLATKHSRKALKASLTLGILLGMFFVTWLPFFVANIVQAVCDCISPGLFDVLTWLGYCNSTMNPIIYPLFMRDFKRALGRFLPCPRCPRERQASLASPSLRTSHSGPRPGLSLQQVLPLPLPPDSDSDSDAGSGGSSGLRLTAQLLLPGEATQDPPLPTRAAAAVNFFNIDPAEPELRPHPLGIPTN
Description: Radioligand binding assay, serotoninergic 5-HT6 receptors.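 Also: test compound at 1 µM.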 The conditions noted are these: binding assay result in %, Table 5a. The gist of the method: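 Values are Ki from Cheng–Prusoff, taking IC50 from Hill nonlinear regression of competition curves and KD from a Scatchard plot. Specific binding was total minus binding with excess unlabelled ligand. Radioligand displacement was detected by scintillation counting, and data were also reported as percent of control specific binding.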

For experiment [5], the target named is T4, serotonin transporter (SERT) (Homo sapiens, UniProt P31645).
T4 construct: expressed in transfected cells; host or cells: CHO cells
T4 sequence (P31645 whole entry): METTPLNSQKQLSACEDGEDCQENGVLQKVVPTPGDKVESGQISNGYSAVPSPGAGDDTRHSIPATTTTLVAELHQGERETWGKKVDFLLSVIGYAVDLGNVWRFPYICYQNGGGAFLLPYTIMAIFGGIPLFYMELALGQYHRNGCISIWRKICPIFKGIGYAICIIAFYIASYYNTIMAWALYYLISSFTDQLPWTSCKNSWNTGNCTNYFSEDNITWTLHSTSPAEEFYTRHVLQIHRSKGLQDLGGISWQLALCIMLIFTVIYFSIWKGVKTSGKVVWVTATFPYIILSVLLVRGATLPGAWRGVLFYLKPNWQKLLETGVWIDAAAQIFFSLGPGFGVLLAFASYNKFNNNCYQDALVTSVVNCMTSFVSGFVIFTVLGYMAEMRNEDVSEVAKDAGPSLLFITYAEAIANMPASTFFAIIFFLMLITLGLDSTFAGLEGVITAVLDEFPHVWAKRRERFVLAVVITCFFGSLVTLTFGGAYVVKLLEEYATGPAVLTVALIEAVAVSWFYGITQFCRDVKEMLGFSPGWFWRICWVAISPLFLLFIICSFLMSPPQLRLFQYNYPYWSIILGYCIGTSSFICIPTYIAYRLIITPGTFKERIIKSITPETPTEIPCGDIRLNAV
Put plainly: Radioligand binding assay, serotonin transporter (SERT). The conditions noted are these: binding assay, test compound 1×10^−6 M. The gist of the method:
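Values are derived from competition curves fitted by the Hill equation to give IC50, then converted to Ki by Cheng-Prusoff with radioligand Kd from Scatchard analysis. Specific binding equals total minus non-specific (excess cold ligand), counted by scintillation, and is also expressed as percent inhibition of control.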

Experiment [6] addresses dopaminergic receptors D3 (Homo sapiens, UniProt P35462). Put plainly: Radioligand binding assay, dopaminergic D3 receptors. To be noted: test compound 1×10^−6 M. The method, boiled down:
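Scintillation read-out. Specific = total − nonspecific (excess cold ligand). Data as % of control specific binding / % inhibition; IC50 by Hill fit; Ki = IC50/(1+L/KD), KD from Scatchard plot.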

In experiment [7] the target is T5, 5-HT1A receptor (rat hippocampus) (Rattus norvegicus, UniProt P19327).
T5 construct: hippocampus; from tissue; host or cells: rat hippocampus
T5 sequence (P19327 1-422): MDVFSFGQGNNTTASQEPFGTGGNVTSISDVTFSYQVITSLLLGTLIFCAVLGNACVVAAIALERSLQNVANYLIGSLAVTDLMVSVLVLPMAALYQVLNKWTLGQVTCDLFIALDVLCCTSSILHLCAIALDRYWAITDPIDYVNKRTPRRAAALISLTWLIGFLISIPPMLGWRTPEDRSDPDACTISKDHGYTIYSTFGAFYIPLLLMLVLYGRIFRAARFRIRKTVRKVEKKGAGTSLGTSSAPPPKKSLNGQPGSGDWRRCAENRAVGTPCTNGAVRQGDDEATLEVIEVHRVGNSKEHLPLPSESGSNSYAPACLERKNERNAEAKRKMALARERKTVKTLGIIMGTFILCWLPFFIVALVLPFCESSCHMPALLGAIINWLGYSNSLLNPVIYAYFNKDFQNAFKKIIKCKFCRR
Description: Radioligand binding assay, serotoninergic 5-HT1A receptors.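 Also: test compound at 1 µM.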 To be noted: binding assay result in %, Table 5a.

Experiment [8] concerns α1 adrenergic receptors (rat cerebral cortex). Put plainly: Radioligand binding assay, adrenergic α1 receptors. The conditions noted are these: test compound 1×10^−6 M. The text has this:
The specific ligand binding to the receptors is defined as the difference between the total binding and the non-specific binding determined in the presence of the excess of unlabelled ligand.
The results are expressed as a percent of control specific binding ((measured specific binding/control specific binding)×100) and as a percent inhibition of control specific binding (100−((measured specific binding/control specific binding)×100)) obtained in the presence of the test compounds. The specific ligand binding to the receptors is defined as the difference between the total binding and the nonspecific binding determined in the presence of an excess of unlabelled ligand. Scintillation counting was the method of detection of ligand binding. The IC50 values (concentration causing a half-maximal inhibition of control specific binding) were determined by non-linear regression analysis of the competition curves generated with mean replicate values using Hill equation curve fitting (Y=D+[(A−D)/(1+(C/C50)nH)], where Y=specific binding, D=minimum specific binding, A=maximum specific binding, C=compound concentration, C50=IC50, and nH=slope factor). […] The inhibition constants (Ki) were calculated using the Cheng Prusoff equation (Ki=IC50/(1+(L/KD)), where L=concentration of radioligand in the assay, and KD=affinity of the radioligand for the receptor). A scatchard plot was used to determine the Kd.

Sequence of dopaminergic receptors D2 (P14416 whole entry): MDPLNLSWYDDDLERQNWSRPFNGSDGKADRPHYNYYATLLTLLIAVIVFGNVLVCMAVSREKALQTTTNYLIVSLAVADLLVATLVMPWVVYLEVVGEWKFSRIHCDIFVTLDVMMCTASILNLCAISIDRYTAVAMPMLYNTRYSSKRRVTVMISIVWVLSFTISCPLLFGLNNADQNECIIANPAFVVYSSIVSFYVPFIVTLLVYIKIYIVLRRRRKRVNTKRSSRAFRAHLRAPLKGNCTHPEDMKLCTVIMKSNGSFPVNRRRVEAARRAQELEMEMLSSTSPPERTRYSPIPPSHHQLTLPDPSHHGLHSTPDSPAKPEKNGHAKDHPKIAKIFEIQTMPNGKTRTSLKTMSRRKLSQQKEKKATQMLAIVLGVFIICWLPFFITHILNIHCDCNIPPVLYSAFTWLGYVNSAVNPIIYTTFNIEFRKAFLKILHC
T1 sequence (P28223 whole entry): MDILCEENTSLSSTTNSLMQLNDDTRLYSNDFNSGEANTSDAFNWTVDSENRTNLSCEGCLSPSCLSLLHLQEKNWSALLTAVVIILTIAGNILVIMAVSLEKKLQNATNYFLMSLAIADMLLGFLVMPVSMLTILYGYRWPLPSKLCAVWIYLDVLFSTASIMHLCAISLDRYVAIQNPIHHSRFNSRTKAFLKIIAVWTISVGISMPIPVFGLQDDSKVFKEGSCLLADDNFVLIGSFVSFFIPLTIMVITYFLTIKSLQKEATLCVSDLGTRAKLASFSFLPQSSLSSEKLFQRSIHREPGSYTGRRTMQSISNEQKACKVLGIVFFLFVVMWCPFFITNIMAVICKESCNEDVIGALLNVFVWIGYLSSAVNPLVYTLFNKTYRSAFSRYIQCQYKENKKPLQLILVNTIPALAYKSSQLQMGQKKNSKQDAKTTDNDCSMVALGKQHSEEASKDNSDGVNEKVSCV
Sequence of dopaminergic receptors D3 (P35462 whole entry): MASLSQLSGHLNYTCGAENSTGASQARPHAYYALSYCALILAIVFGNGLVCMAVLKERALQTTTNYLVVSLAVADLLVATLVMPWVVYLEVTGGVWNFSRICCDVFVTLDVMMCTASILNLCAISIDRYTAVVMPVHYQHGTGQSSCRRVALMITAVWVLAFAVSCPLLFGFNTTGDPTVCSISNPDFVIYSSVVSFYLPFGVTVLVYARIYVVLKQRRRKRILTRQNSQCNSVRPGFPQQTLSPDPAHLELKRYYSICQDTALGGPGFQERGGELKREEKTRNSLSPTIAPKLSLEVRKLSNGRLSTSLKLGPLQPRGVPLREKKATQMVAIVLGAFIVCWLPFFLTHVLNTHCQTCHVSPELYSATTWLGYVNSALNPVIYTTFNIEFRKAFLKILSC

Regarding `O=S(=O)(NC1CCN(CCOc2nsc3ccccc23)CC1)c1ccc2ccccc2c1` [Compound 40, N-[1-[2-(1,2-Benzothiazol-3-yloxy)ethyl]-4-piperidine]naphthalene-2-sulphonamide], the “5-HT2A [%]” value in experiment [1] was 102%. The “D2 [%]” value in experiment [2] was found to be 49%. The “5-HT7 [%]” value in experiment [3] is given as 85%. Also, the “5-HT6 [%]” value in experiment [4] was found to be 72%. Also, the “SERT [%]” value in experiment [5] was −5%. Further, in experiment [6], the “D3 [%]” value is recorded as 39%. In addition, in experiment [7], the “5-HT1A [%]” value is 68%. The “α1 [%]” value in experiment [8] was 12%.
On to `O=S(=O)(NCC1CCN(CCOc2nsc3ccccc23)C1)c1cccc(O)c1` (centres unmarked) [Compound 43, N-[[1-[2-(1,2-Benzothiazol-3-yloxy)ethyl]pyrrolidin-3-yl]methyl]-3-hydroxy-benzenesulphonamide], for which the inhibition (commonly the relative decrease from the control value, in per cent) at 1 µM in experiment [1] is 81%; in experiment [2] it was 55%; in experiment [3], 71%; in experiment [4], 87%; in experiment [5] it was -7%; in experiment [6], 29%. For the same compound, in experiment [7], the inhibition at 1 µM amounted to 83%. For the same compound, the “α1 [%]” value in experiment [8] was determined as 68%.
For `O=S(=O)(NCC1CCN(CCOc2nsc3ccccc23)C1)c1ccc2ccccc2c1` (centres unmarked) [Compound 44, N-[[1-[2-(1,2-Benzothiazol-3-yloxy)ethyl]pyrrolidin-3-yl]methyl]naphthalene-2-sulphonamide], the inhibition at 1 µM was determined as 78% in experiment [1]; 76% in experiment [2]; 68% in experiment [3]; 81% in experiment [4]; 25% in experiment [5]; 52% in experiment [6]. In addition, the inhibition at 1 µM in experiment [7] came out at 62%. The “α1 [%]” value in experiment [8] was 46%.
With `O=S(=O)(NC1CN(CCOc2cccc3[nH]ccc23)C1)c1ccccc1` [Compound 45, N-[1-[2-(1H-indol-4-yloxy)ethyl]azetidin-3-yl]benzenesulphonamide], the inhibition at 1 µM in experiment [1] is 75%; in experiment [2], 53%; in experiment [3], 93%; in experiment [4], 0%; in experiment [5] it was -4%; in experiment [6], 87%. Moreover, in experiment [7], the inhibition at 1 µM is 88%. Further, the “α1 [%]” value in experiment [8] stood at 72%.
As for `O=S(=O)(NC1CCN(CCOc2cccc3[nH]ccc23)C1)c1ccccc1` (centres unmarked) [Compound 51, N-[1-[2-(1H-Indol-4-yloxy)ethyl]pyrrolidin-3-yl]benzenesulphonamide], the inhibition at 1 µM in experiment [1] stood at 67%; in experiment [2] it was 54%; in experiment [3], 101%; in experiment [4], 10%; in experiment [5], 6%; in experiment [6], 103%. Further, the inhibition at 1 µM in experiment [7] is 91%. Moreover, the “α1 [%]” value in experiment [8] came to 77%.
On to `Cc1cccc(S(=O)(=O)NC2CCN(CCOc3cccc4[nH]ccc34)C2)c1` (centres unmarked) [Compound 52, N-[1-[2-(1H-Indol-4-yloxy)ethyl]pyrrolidin-3-yl]-3-methylbenzene-sulphonamide], for which the inhibition at 1 µM in experiment [1] worked out at 89%; in experiment [2], 77%; in experiment [3] it was 90%; in experiment [4], 41%; in experiment [5], 38%; in experiment [6], 106%. Further, in experiment [7], the inhibition at 1 µM is 90%. Also, in experiment [8], the “α1 [%]” value was determined as 81%.
With `O=S(=O)(NC1CCN(CCOc2cccc3[nH]ccc23)C1)c1cccc2ccccc12` (centres unmarked) [Compound 53, N-[1-[2-(1H-indol-4-yloxy)ethyl]pyrrolidin-3-yl]naphthalene-1-sulphonamide], the inhibition at 1 µM in experiment [1] is 85%; in experiment [2] it was 74%; in experiment [3], 102%; in experiment [4], 54%; in experiment [5], 56%; in experiment [6] it was 99%. Also, the inhibition at 1 µM in experiment [7] worked out at 90%. The “α1 [%]” value in experiment [8] is 88%.
